Results from US20240269139A1, “COMPOUNDS FOR TARGETED PROTEIN DEGRADATION OF KINASES” (DANA-FARBER CANCER INSTITUTE, INC., priority 2020, published 2024).
Values joined by “and” are separate entries in the source; they are usually repeats but may differ in a detail not shown here. Equal values may be shown once. Read-outs that look alike come from different tables or passages of the source.

Legend:
[1] = target: T1, extended human kinome (kinase-like proteins) (Homo sapiens, UniProt Q53R41); assay: Whole cell quantitative proteomics: extended kinome hits; settings: experiment wp160, 1 hr
T1 sequence (Q53R41 1-847): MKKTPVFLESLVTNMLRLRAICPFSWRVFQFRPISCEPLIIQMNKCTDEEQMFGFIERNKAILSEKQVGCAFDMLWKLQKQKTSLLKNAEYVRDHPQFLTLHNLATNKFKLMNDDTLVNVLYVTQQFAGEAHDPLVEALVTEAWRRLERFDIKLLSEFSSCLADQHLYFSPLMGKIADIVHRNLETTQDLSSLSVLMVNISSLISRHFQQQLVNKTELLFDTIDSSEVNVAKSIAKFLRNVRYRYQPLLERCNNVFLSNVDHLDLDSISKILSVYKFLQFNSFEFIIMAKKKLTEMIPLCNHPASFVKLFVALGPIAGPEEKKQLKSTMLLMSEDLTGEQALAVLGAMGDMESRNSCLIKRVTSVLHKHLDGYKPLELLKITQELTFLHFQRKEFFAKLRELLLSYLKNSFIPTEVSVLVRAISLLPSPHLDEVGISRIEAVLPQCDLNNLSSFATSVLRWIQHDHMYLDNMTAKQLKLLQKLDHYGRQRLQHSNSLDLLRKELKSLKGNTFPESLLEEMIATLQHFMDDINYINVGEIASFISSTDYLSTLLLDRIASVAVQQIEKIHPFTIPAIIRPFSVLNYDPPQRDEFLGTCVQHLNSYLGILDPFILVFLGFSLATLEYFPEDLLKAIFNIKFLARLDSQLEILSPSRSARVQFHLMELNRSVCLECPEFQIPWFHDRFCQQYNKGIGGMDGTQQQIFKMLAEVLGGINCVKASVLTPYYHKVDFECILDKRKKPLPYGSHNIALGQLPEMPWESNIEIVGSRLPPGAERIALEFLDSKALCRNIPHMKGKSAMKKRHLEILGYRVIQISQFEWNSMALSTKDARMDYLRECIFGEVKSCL

[2] = target: extended human kinome (kinase-like proteins) (Homo sapiens, UniProt P27144); assay: as above; settings: experiment wp160, 1 hr
Sequence of extended human kinome (kinase-like proteins) (Homo sapiens, UniProt P27144) (P27144 whole entry): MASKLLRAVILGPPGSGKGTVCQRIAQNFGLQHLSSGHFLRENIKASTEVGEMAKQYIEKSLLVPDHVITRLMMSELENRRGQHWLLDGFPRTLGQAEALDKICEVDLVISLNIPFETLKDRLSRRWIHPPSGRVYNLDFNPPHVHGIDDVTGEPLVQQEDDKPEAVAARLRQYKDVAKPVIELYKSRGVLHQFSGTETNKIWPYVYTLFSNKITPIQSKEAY

[3] = target: protein kinases (human kinome) (Homo sapiens, UniProt P30291); type: cell-based; settings: for logFC of WEE1: WEE1 P30291-1
Sequence of protein kinases (human kinome) (Homo sapiens, UniProt P30291) (P30291 whole entry): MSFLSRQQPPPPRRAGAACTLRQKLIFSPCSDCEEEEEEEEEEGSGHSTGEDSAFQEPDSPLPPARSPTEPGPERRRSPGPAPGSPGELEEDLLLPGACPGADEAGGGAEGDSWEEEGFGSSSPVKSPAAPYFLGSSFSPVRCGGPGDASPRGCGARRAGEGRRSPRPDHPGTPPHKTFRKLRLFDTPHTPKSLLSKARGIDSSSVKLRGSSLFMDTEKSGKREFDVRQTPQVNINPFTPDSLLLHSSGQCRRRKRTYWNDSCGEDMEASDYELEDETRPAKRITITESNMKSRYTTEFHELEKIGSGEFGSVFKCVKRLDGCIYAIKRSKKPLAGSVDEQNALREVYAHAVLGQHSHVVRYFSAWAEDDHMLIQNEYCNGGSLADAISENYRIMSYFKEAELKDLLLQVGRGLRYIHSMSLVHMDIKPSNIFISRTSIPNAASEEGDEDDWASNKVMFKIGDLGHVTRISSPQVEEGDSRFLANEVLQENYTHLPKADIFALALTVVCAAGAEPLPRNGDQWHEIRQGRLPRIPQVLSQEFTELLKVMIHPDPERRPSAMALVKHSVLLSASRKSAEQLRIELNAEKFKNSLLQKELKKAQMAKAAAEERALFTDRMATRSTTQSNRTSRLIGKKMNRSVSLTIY

[4] = target: protein kinases (human kinome) (Homo sapiens, UniProt P51451); type: cell-based; settings: for logFC BLK: BLK (P51451), direction down; for logFC of BLK: BLK P51451, experiment wp016; for logFC of BLK (P51451): down
Sequence of protein kinases (human kinome) (Homo sapiens, UniProt P51451) (P51451 whole entry): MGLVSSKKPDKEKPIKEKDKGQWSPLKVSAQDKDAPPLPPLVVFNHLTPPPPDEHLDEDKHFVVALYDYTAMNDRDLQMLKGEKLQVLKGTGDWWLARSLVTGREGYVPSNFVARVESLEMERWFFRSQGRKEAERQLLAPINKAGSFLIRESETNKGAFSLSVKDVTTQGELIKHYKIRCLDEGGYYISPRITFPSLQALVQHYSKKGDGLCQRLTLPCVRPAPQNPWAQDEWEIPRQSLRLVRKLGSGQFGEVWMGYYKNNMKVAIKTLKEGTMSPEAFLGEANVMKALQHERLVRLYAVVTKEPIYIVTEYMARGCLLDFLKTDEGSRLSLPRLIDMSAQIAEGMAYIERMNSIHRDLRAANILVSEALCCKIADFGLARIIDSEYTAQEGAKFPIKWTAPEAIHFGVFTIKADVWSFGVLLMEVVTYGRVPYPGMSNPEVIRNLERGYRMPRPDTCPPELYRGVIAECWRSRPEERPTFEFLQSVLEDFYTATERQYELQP

[5] = target: protein kinases (human kinome) (Homo sapiens, UniProt Q00534); type: cell-based; settings: for logFC CDK6: CDK6 (Q00534), direction down; for logFC of CDK6 (Q00534): down
Sequence of protein kinases (human kinome) (Homo sapiens, UniProt Q00534) (Q00534 whole entry): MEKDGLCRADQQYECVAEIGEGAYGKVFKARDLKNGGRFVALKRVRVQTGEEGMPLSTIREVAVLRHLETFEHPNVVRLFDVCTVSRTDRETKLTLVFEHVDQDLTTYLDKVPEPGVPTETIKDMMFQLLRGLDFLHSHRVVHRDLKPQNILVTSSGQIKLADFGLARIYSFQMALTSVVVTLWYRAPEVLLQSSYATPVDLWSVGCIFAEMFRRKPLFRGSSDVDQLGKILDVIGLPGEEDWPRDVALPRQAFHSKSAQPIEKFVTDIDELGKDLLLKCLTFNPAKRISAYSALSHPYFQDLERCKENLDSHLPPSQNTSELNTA

[6] = target: T2, protein kinases (human kinome) (Homo sapiens, UniProt O75385); type: cell-based; settings: for logFC: ULK1 (O75385) protein abundance, degrader vs DMSO, down; for logFC ULK1: ULK1 O75385
T2 sequence (O75385 1-1050): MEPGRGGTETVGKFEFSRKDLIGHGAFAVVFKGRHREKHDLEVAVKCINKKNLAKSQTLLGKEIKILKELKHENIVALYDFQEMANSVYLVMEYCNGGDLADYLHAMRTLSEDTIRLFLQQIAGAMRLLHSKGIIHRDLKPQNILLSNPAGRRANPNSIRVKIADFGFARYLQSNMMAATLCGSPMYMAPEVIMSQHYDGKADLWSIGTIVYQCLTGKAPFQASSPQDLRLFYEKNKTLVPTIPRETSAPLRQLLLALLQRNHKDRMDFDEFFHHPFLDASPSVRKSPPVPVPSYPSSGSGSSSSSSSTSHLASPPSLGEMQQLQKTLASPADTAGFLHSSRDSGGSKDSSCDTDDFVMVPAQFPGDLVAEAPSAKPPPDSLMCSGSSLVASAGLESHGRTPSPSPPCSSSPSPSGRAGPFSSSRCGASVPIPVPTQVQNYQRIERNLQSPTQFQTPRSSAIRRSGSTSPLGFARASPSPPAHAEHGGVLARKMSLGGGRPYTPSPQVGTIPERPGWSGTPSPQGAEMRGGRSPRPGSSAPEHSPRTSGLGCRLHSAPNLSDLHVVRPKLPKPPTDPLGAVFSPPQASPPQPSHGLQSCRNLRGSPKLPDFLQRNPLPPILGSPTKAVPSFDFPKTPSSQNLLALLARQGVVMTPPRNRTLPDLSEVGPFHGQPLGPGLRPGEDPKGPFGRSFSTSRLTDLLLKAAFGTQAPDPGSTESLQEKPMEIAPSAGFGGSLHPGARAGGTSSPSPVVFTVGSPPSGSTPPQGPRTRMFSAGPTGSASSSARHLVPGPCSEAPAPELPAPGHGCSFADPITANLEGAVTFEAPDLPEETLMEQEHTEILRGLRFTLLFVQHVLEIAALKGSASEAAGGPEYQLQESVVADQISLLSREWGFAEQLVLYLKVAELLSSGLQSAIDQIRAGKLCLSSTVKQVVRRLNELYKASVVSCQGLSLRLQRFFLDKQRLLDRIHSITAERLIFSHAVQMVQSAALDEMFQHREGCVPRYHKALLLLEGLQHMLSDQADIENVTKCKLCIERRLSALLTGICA

CC(C)S(=O)(=O)c1ccccc1Nc1nc(Nc2ccc(N3CCN(CCOCCNC(=O)CNc4cccc5c4C(=O)N(C4CCC(=O)NC4=O)C5=O)CC3)cc2)ncc1Cl (stereo not drawn) [SK.3.91]
logFC FASTKD1 (Q53R41) [1]: −0.8675 | logFC AK4 (P27144) [2]: −0.8232 | logFC WEE1 (P30291-1) ([3]; Experiment wp160, 2 hr): −1.201 | logFC WEE1 (P30291-1) ([3]; Experiment wp172): −0.6853 | logFC of WEE1 ([3]; experiment wp103): −1.371 | logFC of WEE1 ([3]; experiment wp105): −1.229 | logFC of WEE1 ([3]; experiment wp107): −2.329 | logFC of WEE1 ([3]; experiment wp133, 1 hr): −0.4866 | logFC of WEE1 ([3]; experiment wp133, 2 hr): −1.21 | logFC of WEE1 ([3]; experiment wp133, 4 hr): −2.314 | logFC of WEE1 ([3]; experiment wp160, 1 hr): −0.5503 | logFC of WEE1 ([3]; experiment wp160, 2 hr): −1.201 | logFC of WEE1 ([3]; experiment wp160, 4 hr): −1.994 | logFC of WEE1 ([3]; experiment wp172): −0.6853 | logFC WEE1 (P30291-1) ([3]; experiment wp016): −1.278 | logFC WEE1 (P30291-1) ([3]; experiment wp016, 1 uM): −2.684 | logFC WEE1 (P30291-1) ([3]; experiment wp103): −1.371 | logFC WEE1 (P30291-1) ([3]; experiment wp105): −1.229 | logFC WEE1 (P30291-1) ([3]; experiment wp107): −2.329 | logFC WEE1 (P30291-1) ([3]; experiment wp133, 1 hr): −0.4866 | logFC WEE1 (P30291-1) ([3]; experiment wp133, 2 hr): −1.21 | logFC WEE1 (P30291-1) ([3]; experiment wp133, 4 hr): −2.314 | logFC WEE1 (P30291-1) ([3]; experiment wp160, 1 hr): −0.5503 | logFC WEE1 (P30291-1) ([3]; experiment wp160, 4 hr): −1.994 | logFC BLK ([4]; experiment wp103): −1.625 | logFC BLK ([4]; experiment wp107): −1.649 | logFC BLK ([4]; experiment wp133, 1 hr): −0.3727 | logFC BLK ([4]; experiment wp133, 2 hr): −0.8217 | logFC BLK ([4]; experiment wp133, 4 hr): −1.49 | logFC BLK ([4]; experiment wp160, 2 hr): −0.8744 | logFC BLK ([4]; experiment wp160, 4 hr): −1.678 | logFC of BLK [4]: −1.446 | logFC of BLK ([4]; 1 uM): −1.977 | logFC of BLK (P51451) ([4]; Experiment wp016, 1 uM): −1.977 | logFC of BLK (P51451) ([4]; Experiment wp016): −1.446 | logFC of BLK (P51451) ([4]; Experiment wp103): −1.625 | logFC of BLK (P51451) ([4]; Experiment wp107): −1.649 | logFC of BLK (P51451) ([4]; Experiment wp133, 1 hr): −0.3727 | logFC of BLK (P51451) ([4]; Experiment wp133, 2 hr): −0.8217 | logFC of BLK (P51451) ([4]; Experiment wp133, 4 hr): −1.49 | logFC of BLK (P51451) ([4]; Experiment wp160, 2 hr): −0.8744 | logFC of BLK (P51451) ([4]; Experiment wp160, 4 hr): −1.678 | logFC CDK6 ([5]; experiment wp016): −0.8832 | logFC CDK6 ([5]; experiment wp016, 1 uM): −1.149 | logFC CDK6 ([5]; experiment wp103): −0.9349 | logFC CDK6 ([5]; experiment wp105): −0.5421 | logFC CDK6 ([5]; experiment wp107): −1.012 | logFC CDK6 ([5]; experiment wp133, 1 hr): −0.3542 | logFC CDK6 ([5]; experiment wp133, 2 hr): −0.6404 | logFC CDK6 ([5]; experiment wp133, 4 hr): −1.05 | logFC CDK6 ([5]; experiment wp160, 1 hr): −0.3255 | logFC CDK6 ([5]; experiment wp160, 2 hr): −0.5948 | logFC CDK6 ([5]; experiment wp160, 4 hr): −1.133 | logFC of CDK6 (Q00534) ([5]; Experiment wp016, 1 uM): −1.149 | logFC of CDK6 (Q00534) ([5]; Experiment wp016): −0.8832 | logFC of CDK6 (Q00534) ([5]; Experiment wp103): −0.9349 | logFC of CDK6 (Q00534) ([5]; Experiment wp105): −0.5421 | logFC of CDK6 (Q00534) ([5]; Experiment wp107): −1.012 | logFC of CDK6 (Q00534) ([5]; Experiment wp133, 1 hr): −0.3542 | logFC of CDK6 (Q00534) ([5]; Experiment wp133, 2 hr): −0.6404 | logFC of CDK6 (Q00534) ([5]; Experiment wp133, 4 hr): −1.05 | logFC of CDK6 (Q00534) ([5]; Experiment wp160, 1 hr): −0.3255 | logFC of CDK6 (Q00534) ([5]; Experiment wp160, 2 hr): −0.5948 | logFC of CDK6 (Q00534) ([5]; Experiment wp160, 4 hr): −1.133 | logFC ([6]; 1 hr): −1.472 and −1.466 | logFC ([6]; 2 hr): −2.779 and −2.583 | logFC ULK1 ([6]; experiment wp103): −1.332 | logFC ULK1 ([6]; experiment wp105): −1.712 | logFC ULK1 ([6]; experiment wp107): −1.162 | logFC ULK1 ([6]; experiment wp133, 1 hr): −1.472 | logFC ULK1 ([6]; experiment wp133, 2 hr): −2.779 | logFC ULK1 ([6]; experiment wp133, 4 hr): −3.572 | logFC ULK1 ([6]; experiment wp160, 1 hr): −1.466 | logFC ULK1 ([6]; experiment wp160, 2 hr): −2.583 | logFC ULK1 ([6]; experiment wp160, 4 hr): −3.085
